Reference: PMC6009956, “Design, synthesis and biological activity of N^4-phenylsubstituted-7H-pyrrolo[2,3-d]pyrimidin-4-amines as dual inhibitors of aurora kinase A and epidermal growth factor receptor kinase” (Journal of Enzyme Inhibition and Medicinal Chemistry, 2017)
Like-named read-outs stand apart in the source and are kept apart here.

Key:
EGFR = EGFR (Homo sapiens, UniProt P00533); test: ADP-Glo kinase assay, EGFR; format: biochemical; design: purchased BPS Bioscience (assay run externally by the vendor)
Chain of EGFR (P00533 25-1210): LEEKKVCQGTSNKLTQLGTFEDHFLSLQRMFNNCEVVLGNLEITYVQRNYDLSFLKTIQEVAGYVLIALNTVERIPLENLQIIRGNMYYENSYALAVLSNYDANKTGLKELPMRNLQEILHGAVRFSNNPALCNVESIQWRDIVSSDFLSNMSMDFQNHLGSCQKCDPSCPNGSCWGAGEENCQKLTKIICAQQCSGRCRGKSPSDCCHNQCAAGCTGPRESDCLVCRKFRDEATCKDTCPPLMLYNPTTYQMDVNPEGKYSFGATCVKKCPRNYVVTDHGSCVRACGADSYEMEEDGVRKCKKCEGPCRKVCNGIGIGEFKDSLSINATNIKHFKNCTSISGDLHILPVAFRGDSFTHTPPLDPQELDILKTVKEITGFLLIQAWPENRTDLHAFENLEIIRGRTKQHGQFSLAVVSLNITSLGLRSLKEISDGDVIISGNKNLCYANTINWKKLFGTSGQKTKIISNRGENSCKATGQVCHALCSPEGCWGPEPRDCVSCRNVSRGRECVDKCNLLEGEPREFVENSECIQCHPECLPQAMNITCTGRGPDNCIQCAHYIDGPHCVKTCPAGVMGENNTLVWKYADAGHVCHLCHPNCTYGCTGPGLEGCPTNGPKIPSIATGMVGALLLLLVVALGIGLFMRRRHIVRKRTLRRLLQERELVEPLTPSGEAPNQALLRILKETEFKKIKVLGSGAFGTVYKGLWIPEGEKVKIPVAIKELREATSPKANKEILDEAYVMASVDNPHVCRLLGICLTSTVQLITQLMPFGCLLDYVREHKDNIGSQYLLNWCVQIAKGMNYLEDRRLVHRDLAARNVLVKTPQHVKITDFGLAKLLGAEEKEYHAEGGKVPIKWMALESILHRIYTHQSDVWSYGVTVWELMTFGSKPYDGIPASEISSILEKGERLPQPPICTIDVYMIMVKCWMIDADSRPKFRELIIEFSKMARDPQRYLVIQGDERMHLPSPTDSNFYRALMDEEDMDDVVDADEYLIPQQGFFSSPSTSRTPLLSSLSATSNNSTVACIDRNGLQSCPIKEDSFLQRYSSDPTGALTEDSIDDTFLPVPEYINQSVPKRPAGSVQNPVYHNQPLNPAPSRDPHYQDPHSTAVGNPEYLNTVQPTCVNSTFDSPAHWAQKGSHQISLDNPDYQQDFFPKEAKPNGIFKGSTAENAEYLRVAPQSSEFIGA

aurora A kinase (AURKA) = molecular target: T1, aurora A kinase (AURKA) (Homo sapiens, UniProt O14965); test: ADP-Glo kinase assay, Aurora A; format: biochemical
T1 construct: purchased BPS Bioscience (assay run externally by the vendor)
T1 sequence (O14965 1-403): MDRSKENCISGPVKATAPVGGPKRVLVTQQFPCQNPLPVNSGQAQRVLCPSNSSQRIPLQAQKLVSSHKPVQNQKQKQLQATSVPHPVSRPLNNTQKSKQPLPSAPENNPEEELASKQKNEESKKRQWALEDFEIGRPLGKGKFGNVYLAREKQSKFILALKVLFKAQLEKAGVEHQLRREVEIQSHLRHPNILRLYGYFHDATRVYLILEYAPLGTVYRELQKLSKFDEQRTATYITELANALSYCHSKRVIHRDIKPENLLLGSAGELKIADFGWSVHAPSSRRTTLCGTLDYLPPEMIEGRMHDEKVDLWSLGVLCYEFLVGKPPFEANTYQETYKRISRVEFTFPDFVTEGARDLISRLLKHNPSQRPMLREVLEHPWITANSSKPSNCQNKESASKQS

IC50 (EGFR; 10 µM ATP, triplicate, read-out: EGFR IC50 ± SD): 0.471 ± 0.114 µM
IC50 (EGFR; 10 µM ATP/0.2 mg/ml Poly-Glu-Tyr, read-out: EGFR IC50 (dose-response curve, supplement)): 0.471 µM
EGFR % Activity Set1 (EGFR; Log[nM] 0): 100%
EGFR % Activity Set2 (EGFR; Log[nM] 0): 95%
EGFR % Activity Set3 (EGFR; Log[nM] 0): 94%
EGFR % Activity Set1 (EGFR; Log[nM] 1.0): 105%
EGFR % Activity Set2 (EGFR; Log[nM] 1.0): 90%
EGFR % Activity Set3 (EGFR; Log[nM] 1.0): 96%
EGFR % Activity Set1 (EGFR; Log[nM] 1.5): 108%
EGFR % Activity Set2 (EGFR; Log[nM] 1.5): 83%
EGFR % Activity Set3 (EGFR; Log[nM] 1.5): 93%
EGFR % Activity Set1 (EGFR; Log[nM] 2.0): 89%
EGFR % Activity Set2 (EGFR; Log[nM] 2.0): 75%
EGFR % Activity Set3 (EGFR; Log[nM] 2.0): 84%
EGFR % Activity Set1 (EGFR; Log[nM] 2.5): 62%
EGFR % Activity Set2 (EGFR; Log[nM] 2.5): 53%
EGFR % Activity Set3 (EGFR; Log[nM] 2.5): 57%
EGFR % Activity Set1 (EGFR; Log[nM] 3.0): 36%
EGFR % Activity Set2 (EGFR; Log[nM] 3.0): 27%
EGFR % Activity Set3 (EGFR; Log[nM] 3.0): 33%
EGFR % Activity Set1 (EGFR; Log[nM] 3.5): 16%
EGFR % Activity Set2 (EGFR; Log[nM] 3.5): 14%
EGFR % Activity Set3 (EGFR; Log[nM] 3.5): 16%
EGFR % Activity Set1 (EGFR; Log[nM] 4.0): 8%
EGFR % Activity Set2 (EGFR; Log[nM] 4.0): 6%
EGFR % Activity Set3 (EGFR; Log[nM] 4.0): 7%
EGFR % Activity Set1 (EGFR; Log[nM] 4.5): 4%
EGFR % Activity Set2 (EGFR; Log[nM] 4.5): 3%
EGFR % Activity Set3 (EGFR; Log[nM] 4.5): 3%
EGFR % Activity Set1 (EGFR; Log[nM] 5.0): 5%
EGFR % Activity Set2 (EGFR; Log[nM] 5.0): 4%
EGFR % Activity Set3 (EGFR; Log[nM] 5.0): 4%
IC50 (aurora A kinase (AURKA); 10 µM ATP, triplicate, read-out: AURKA IC50 ± SD): 5.66 ± 0.43 µM
IC50 (aurora A kinase (AURKA); 10 µM ATP/0.2 mg/ml Kemptide, read-out: Aurora A IC50 (dose-response curve, supplement)): 5.7 µM
Aurora A % Activity Set1 (aurora A kinase (AURKA); Log[nM] 0): 97%
Aurora A % Activity Set2 (aurora A kinase (AURKA); Log[nM] 0): 92%
Aurora A % Activity Set3 (aurora A kinase (AURKA); Log[nM] 0): 94%
Aurora A % Activity Set1 (aurora A kinase (AURKA); Log[nM] 1.0): 102%
Aurora A % Activity Set2 (aurora A kinase (AURKA); Log[nM] 1.0): 97%
Aurora A % Activity Set3 (aurora A kinase (AURKA); Log[nM] 1.0): 98%
Aurora A % Activity Set1 (aurora A kinase (AURKA); Log[nM] 1.5): 111%
Aurora A % Activity Set2 (aurora A kinase (AURKA); Log[nM] 1.5): 96%
Aurora A % Activity Set3 (aurora A kinase (AURKA); Log[nM] 1.5): 98%
Aurora A % Activity Set1 (aurora A kinase (AURKA); Log[nM] 2.0): 103%
Aurora A % Activity Set2 (aurora A kinase (AURKA); Log[nM] 2.0): 98%
Aurora A % Activity Set3 (aurora A kinase (AURKA); Log[nM] 2.0): 102%
Aurora A % Activity Set1 (aurora A kinase (AURKA); Log[nM] 2.5): 101%
Aurora A % Activity Set2 (aurora A kinase (AURKA); Log[nM] 2.5): 106%
Aurora A % Activity Set3 (aurora A kinase (AURKA); Log[nM] 2.5): 101%
Aurora A % Activity Set1 (aurora A kinase (AURKA); Log[nM] 3.0): 87%
Aurora A % Activity Set2 (aurora A kinase (AURKA); Log[nM] 3.0): 86%
Aurora A % Activity Set3 (aurora A kinase (AURKA); Log[nM] 3.0): 93%
Aurora A % Activity Set1 (aurora A kinase (AURKA); Log[nM] 3.5): 73%
Aurora A % Activity Set2 (aurora A kinase (AURKA); Log[nM] 3.5): 68%
Aurora A % Activity Set3 (aurora A kinase (AURKA); Log[nM] 3.5): 73%
Aurora A % Activity Set1 (aurora A kinase (AURKA); Log[nM] 4.0): 28%
Aurora A % Activity Set2 (aurora A kinase (AURKA); Log[nM] 4.0): 25%
Aurora A % Activity Set3 (aurora A kinase (AURKA); Log[nM] 4.0): 27%
Aurora A % Activity Set1 (aurora A kinase (AURKA); Log[nM] 4.5): 14%
Aurora A % Activity Set2 (aurora A kinase (AURKA); Log[nM] 4.5): 13%
Aurora A % Activity Set3 (aurora A kinase (AURKA); Log[nM] 4.5): 14%
Aurora A % Activity Set1 (aurora A kinase (AURKA); Log[nM] 5.0): 13%
Aurora A % Activity Set2 (aurora A kinase (AURKA); Log[nM] 5.0): 11%
Aurora A % Activity Set3 (aurora A kinase (AURKA); Log[nM] 5.0): 14%
SMILES: Clc1ccccc1Nc1ncnc2[nH]ccc12 [Compound 14, N^4-(2-chlorophenyl)-7H-pyrrolo[2,3-d]pyrimidin-4-amine]
